Test results published in PMC7795425, “Synthesis and Biological Activity of Brassinosteroid Analogues with a Nitrogen-Containing Side Chain” (International Journal of Molecular Sciences, 2020).
“Also recorded” adds a separate entry of the source.

Legend:
[1] = system: Arabidopsis thaliana L. (Columbia ecotype, Col-0) seedlings; assay: Arabidopsis root sensitivity bioassay; type: in vivo; conditions: for root length, mean: 7-day-old seedlings
Method: Several bioassays such as the first bean internode, root growth and rice lamina inclination have been developed to evaluate the growth-promoting activity of BR derivatives. In this work, the activity of new BR analogues was evaluated using the Arabidopsis root sensitivity test because of its simplicity and high sensitivity for BRs.. The characteristic effect of exogenously applied BRs on light-grown Arabidopsis is dose-dependent—BRs in higher concentrations cause inhibition of root growth; vice versa, low concentrations are stimulating. The results obtained for 24-epiBL, which was used as a positive control, and the BR derivatives are shown in Figure 2, Figure 3 and Figure S21. […] A similar trend was shown for dimethylammonium hydrochloride 22a and morpholinium hydrochloride 22e with a long side chain. For numerical values of the average, SD and p-value, see Table S2.
The biological activity of the new BRs derivatives was tested by an Arabidopsis sensitivity bioassay which was performed according to [28]. Briefly, seedlings of Arabidopsis thaliana L. (Columbia ecotype, Col-0) were stratified for 2 days at 4 °C and germinated on vertical half-strength Murashige and Skoog (1% w/v sucrose) agar at 22 °C in a 16 h/8 h light–dark cycle. The plates contained concentrations of 24-epiBL (as positive control) and BR derivatives ranging from 0.1 to 10 nM, respectively 100 nM (for selected derivatives only). After 7 days, roots were straightened on solid media plates and scanned with an Epson high-resolution scanner. The entire root length was measured with ImageJ (http://rsbweb.nih.gov/ij/). For each treatment, more than 15 seedlings were analyzed in two biological repeats, and p-values were calculated with the two-tailed Student t-test using Excel software.
(§1) Figure 2 Effect of selected brassinosteroid derivatives on the inhibition of Arabidopsis root length. Seven-day-old Arabidopsis thaliana seedlings (Columbia ecotype, Col-0) were treated with DMSO as control/24epiBL/BR short side chain derivatives; (A)—amides, (B)—amines, (C)—ammonium hydrochlorides. For each treatment, more than 15 seedlings were analyzed in two biological repeats. Error bars represent SD. Asterisks represent significant changes (t-test); * represents p-value < 0.05, in comparison to control.
as §1, with “Figure 3” for “Figure 2”, “control/24epiBL/BR long” for “control/24epiBL/BR short”, “(A)—amides, (B)—ammonium” for “(A)—amides, (B)—amines, (C)—ammonium”
Table S2: Data for figure 2, 3, and S21. P value <0.05(t-test), comparison to control.
control (mean ± SD) 16.3 ± 1.21
*only selected compounds were tested
mean(mm) SD t-test mean (mm) SD t-test mean (mm) SD t-test mean (mm) SD t-test
(1 picture or pasted object on this page, not shown here)

[2] = Calcein AM cytotoxicity assay, CEM; type: cell-based; conditions: human, CEM T-lymphoblastic leukemia cells, IC50 > 50 µM means inactive, read-out: Cytotoxic activity IC50
Method: (§2) The effect of the prepared BRs derivatives on the viability (in Calcein AM assays) of BJ human fibroblasts (as an example of a “normal” cell line) and human cancer cell lines of various histopathological origins, including: T-lymphoblastic leukemia CEM, breast carcinoma MCF7 and cervical carcinoma cell line HeLa, was also studied. Cells of all these lines were exposed to six 3-fold dilutions of each drug for 72 h prior to determination of cell survival. The IC50 (concentration leading to 50% inhibition of viability) values obtained from the Calcein AM cytotoxicity assay were calculated. […] All tested BR nitrogen-containing derivatives had no detectable activity, even when tested in concentrations of up to 50 µM.
(§3) The screening cell lines: T-lymphoblastic leukemia CEM; breast carcinoma MCF7 (estrogen-sensitive); cervical carcinoma cell line HeLa; and human foreskin fibroblasts BJ, were obtained from the American Type Culture Collection (Manassas, VA, USA). Cells were cultured in DMEM (Dulbecco’s Modified Eagle Medium, Sigma, St. Louis, MO, USA). Media used were supplemented with 10% fetal bovine serum, 2mM L-glutamine and 1% penicillin–streptomycin. The cell lines were maintained under standard cell culture conditions at 37 °C and 5% CO2 in a humid environment.
(§4) Cells were subcultured twice or three times a week using the standard trypsinization procedure. Cytotoxicity in cancer cell lines after 72 h was determined as described earlier. Control cultures were treated with DMSO alone, and the final concentration of DMSO in the mixture never exceeded 0.6%. Six serial 3-fold dilutions of the test substances were added at time zero in 20 μL aliquots to the microtiter plate wells and the highest final concentration in the wells was 50 μM.
(§5) Table S3: Cytotoxic activities, IC50 (µM/L)a, of compounds in three tumor and one normal fibroblast
(§6) Compound CEM MCF7 HeLa BJ
(§7) a The lowest concentration that kills 50% of cells.
(§8) b Increase of cell proliferation.

[3] = Calcein AM cytotoxicity assay, MCF7; type: cell-based; conditions: human, MCF7 breast carcinoma cells (estrogen-sensitive), MCF7, 72 h, IC50 > 50 µM means inactive, read-out: Cytotoxic activity IC50
Method: as §2, §3, §4, §5, §6, §7, §8

[4] = Calcein AM cytotoxicity assay, HeLa; type: cell-based; conditions: human, HeLa cervical carcinoma cells, IC50 > 50 µM means inactive, read-out: Cytotoxic activity IC50
Method: as §2, §3, §4, §5, §6, §7, §8

[5] = Calcein AM cytotoxicity assay, BJ; type: cell-based; conditions: human, BJ foreskin fibroblasts (normal cell line), IC50 > 50 µM means inactive, read-out: Cytotoxic activity IC50
Method: as §2, §3, §4, §5, §6, §7, §8

Structure (SMILES)	root length, mean ([1]; 0.1 nM, control 16.3 ± 1.21) [mm]	root length, mean ([1]; 1 nM, control 16.3 ± 1.21) [mm]	root length, mean ([1]; 10 nM, control 16.3 ± 1.21) [mm]	IC50 at 72 h [2] [µM]	IC50 at 72 h [3] [µM]	IC50 at 72 h [4] [µM]	IC50 at 72 h [5] [µM]	melting point	elongation of roots (growth-promoting activity) compared to the control ([1]; low concentrations (0.1 and 1 nM))	root length, mean ([1]; 100 nM (only selected compounds), control 14.61 ± 0.85) [mm]
C[C@H](C(=O)N1CCCC1)[C@H]1CC[C@H]2[C@@H]3CC(=O)[C@H]4C[C@H](O)[C@H](O)C[C@]4(C)[C@H]3CC[C@]12C [8c, 1-((20S)-2α,3α-dihydroxy-6-oxo-5α-pregnane-20-carbonyl)pyrrolidine]	17.61	18.58	15.97	> 50	> 50	> 50	> 50	> 180 °C (dec.)	–	–
C[C@H](C(=O)N1CCCCC1)[C@H]1CC[C@H]2[C@@H]3CC(=O)[C@H]4C[C@H](O)[C@H](O)C[C@]4(C)[C@H]3CC[C@]12C [8d, 1-((20S)-2α,3α-dihydroxy-6-oxo-5α-pregnane-20-carbonyl)piperidine]	17.11	15.97	14.18	> 50	> 50	> 50	> 50	> 230 °C (dec.)	–	–
C[C@H](C(=O)N1CCOCC1)[C@H]1CC[C@H]2[C@@H]3CC(=O)[C@H]4C[C@H](O)[C@H](O)C[C@]4(C)[C@H]3CC[C@]12C [8e, 4-((20S)-2α,3α-dihydroxy-6-oxo-5α-pregnane-20-carbonyl)morpholine]	17.77	17.44	15.16	> 50	> 50	> 50	> 50	> 270 °C (dec.)	slight elongation of roots; also recorded: interesting growth-promoting activity	–
C[C@H](CN(C)C)[C@H]1CC[C@H]2[C@@H]3CC(=O)[C@H]4C[C@H](O)[C@H](O)C[C@]4(C)[C@H]3CC[C@]12C [15a, (20S)-20-(N,N-dimethylaminomethyl)-2α,3α-dihydroxy-5α-pregnane-6-one]	14.83	14.29	14.34	> 50	> 50	> 50	> 50	219 to 221 °C	–	–
CCN(CC)C[C@@H](C)[C@H]1CC[C@H]2[C@@H]3CC(=O)[C@H]4C[C@H](O)[C@H](O)C[C@]4(C)[C@H]3CC[C@]12C [15b, (20S)-20-(N,N-diethylaminomethyl)-2α,3α-dihydroxy-5α-pregnane-6-one]	14.93	16.13	14.67	> 50	> 50	> 50	> 50	> 190 °C (dec.)	–	13.903
